Measurements taken from ChEMBL document CHEMBL1141684, “Synthesis and evaluation of cis-3,4-disubstituted piperidines as potent CC chemokine receptor 2 (CCR2) antagonists” (Bioorg Med Chem Lett, 2008).

Legend:
[1] = molecular target: T1, C-C chemokine receptor type 2 (Homo sapiens, UniProt P41597); assay: Antagonist activity at CCR2 in human PBMC assessed as MCP1-induced calcium flux by fluorescence-imaging plate assay; format: functional
Target sequence in this assay (P41597 whole entry): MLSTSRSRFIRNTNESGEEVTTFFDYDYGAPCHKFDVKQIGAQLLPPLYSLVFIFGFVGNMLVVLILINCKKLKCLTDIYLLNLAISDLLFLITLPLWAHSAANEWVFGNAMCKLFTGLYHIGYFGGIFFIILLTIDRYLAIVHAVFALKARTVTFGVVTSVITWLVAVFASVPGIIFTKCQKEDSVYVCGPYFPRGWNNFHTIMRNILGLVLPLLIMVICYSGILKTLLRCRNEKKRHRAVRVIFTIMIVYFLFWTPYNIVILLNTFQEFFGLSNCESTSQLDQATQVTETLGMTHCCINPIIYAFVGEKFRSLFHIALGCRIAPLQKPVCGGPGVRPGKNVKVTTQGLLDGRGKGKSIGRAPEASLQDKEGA

[2] = molecular target: T1, C-C chemokine receptor type 2; assay: Displacement of radiolabeled MCP1 from CCR2 in human PBMC by millipore filter plate assay
Target sequence in this assay (P41597 whole entry): as above

[3] = molecular target: T2, C-C chemokine receptor type 3 (Homo sapiens) (UniProt P51677); assay: Inhibition of CCR3 at 10 uM
T2 sequence (whole entry): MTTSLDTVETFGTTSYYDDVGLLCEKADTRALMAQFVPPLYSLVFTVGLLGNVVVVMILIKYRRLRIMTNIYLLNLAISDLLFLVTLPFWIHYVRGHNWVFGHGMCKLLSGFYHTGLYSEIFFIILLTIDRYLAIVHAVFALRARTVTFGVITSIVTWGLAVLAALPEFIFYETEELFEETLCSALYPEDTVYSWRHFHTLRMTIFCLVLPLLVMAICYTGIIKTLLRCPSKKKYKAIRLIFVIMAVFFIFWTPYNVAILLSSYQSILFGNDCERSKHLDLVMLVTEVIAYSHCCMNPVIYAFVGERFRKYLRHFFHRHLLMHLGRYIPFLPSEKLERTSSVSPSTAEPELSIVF

[4] = molecular target: C-C chemokine receptor type 2 (Homo sapiens, UniProt P41597, E291A); assay: Binding affinity to CCR2 E291A mutant
Sequence of C-C chemokine receptor type 2 (Homo sapiens, UniProt P41597, E291A) (P41597 whole entry E291A): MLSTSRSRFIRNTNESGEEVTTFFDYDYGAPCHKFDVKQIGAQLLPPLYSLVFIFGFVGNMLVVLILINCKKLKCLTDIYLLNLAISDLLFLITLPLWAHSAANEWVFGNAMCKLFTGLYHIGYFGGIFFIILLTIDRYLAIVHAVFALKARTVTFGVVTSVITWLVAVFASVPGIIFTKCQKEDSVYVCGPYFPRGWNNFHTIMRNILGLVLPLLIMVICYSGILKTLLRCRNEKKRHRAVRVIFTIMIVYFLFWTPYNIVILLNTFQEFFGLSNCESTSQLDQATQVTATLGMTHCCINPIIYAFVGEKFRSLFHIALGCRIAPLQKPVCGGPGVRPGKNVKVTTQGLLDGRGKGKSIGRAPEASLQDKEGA

[5] = molecular target: T1, C-C chemokine receptor type 2; assay: Binding affinity to wild type CCR2
Target sequence in this assay (P41597 whole entry): as the sequence (P41597 whole entry) above

[6] = molecular target: T1, C-C chemokine receptor type 2; assay: Displacement of radiolabeled MCP1 from CCR2 in human PBMC at 1 uM by millipore filter plate assay
Target sequence in this assay (P41597 whole entry, looked up): as the sequence (P41597 whole entry) above

IC50 [1]	IC50 [2]	inhibition [3]	IC50 [4]	IC50 [5]	Activity [6]	Compound
21 nM	8.7 nM	38.2%	–	–	–	CCCN1CCC(NCc2ccc(SC)cc2)C(NC(=O)CNC(=O)c2cc(C(F)(F)F)ccc2NC(=O)N2CCCC2)C1 (racemic)
75 nM	28 nM	19.7%	381 nM	12 nM	–	CSc1ccc(C(=O)NC2CCNCC2NC(=O)CNC(=O)c2cc(C(F)(F)F)ccc2N)cc1 (racemic)
–	123 nM	–	–	–	–	CCSc1ccc(CNC2CCNCC2NC(=O)CNC(=O)c2cc(C(F)(F)F)ccc2N)cc1 (racemic)
510 nM	97 nM	46%	–	–	–	CSc1ccc(CNC2CCNCC2NC(=O)CNC(=O)c2cccc(C(F)(F)F)c2)cc1 (racemic)
5 nM	0.95 nM	56%	–	–	–	CSc1ccc(CNC2CCN(C)CC2NC(=O)CNC(=O)c2cc(C(F)(F)F)ccc2N)cc1 (racemic)
2 nM	1.8 nM	43.1%	–	–	–	CSc1ccc(C(=O)NC2CCN(C)CC2NC(=O)CNC(=O)c2cc(C(F)(F)F)ccc2N)cc1 (racemic)
6 nM	6.2 nM	–	–	–	–	CCCN1CCC(NC(=O)c2ccc(SC)cc2)C(NC(=O)CNC(=O)c2cc(N)cc(C(F)(F)F)c2)C1 (racemic)
3 nM	6.1 nM	49.3%	–	–	–	CCCN1CCC(NCc2ccc(SC)cc2)C(NC(=O)CNC(=O)c2cc(N)cc(C(F)(F)F)c2)C1 (racemic)
–	1180 nM	–	–	–	–	CSc1ccc(CNC2CCCCC2NC(=O)CNC(=O)c2cc(C(F)(F)F)ccc2N)cc1 (racemic)
7 nM	6.3 nM	47.3%	749 nM	6.1 nM	–	CSc1ccc(CNC2CCNCC2NC(=O)CNC(=O)c2cc(C(F)(F)F)ccc2N)cc1 (racemic)
19 nM	21.5 nM	90%	–	–	–	Nc1ccc(C(F)(F)F)cc1C(=O)NCC(=O)NC1CNCCC1NCc1ccc(Cl)cc1 (racemic)
2 nM	3.4 nM	47%	–	–	–	CCCN1CCC(NCc2ccc(SC)cc2)C(NC(=O)CNC(=O)c2cc(C(F)(F)F)ccc2N)C1 (racemic)
3 nM	3.8 nM	5.5%	–	–	–	CCCN1CCC(NCc2ccc(SC)cc2)C(NC(=O)CNC(=O)c2cc(C(F)(F)F)ccc2NC(=O)NC)C1 (racemic)
–	463 nM	–	–	–	–	CSc1ccc(CNC2CCN(C(C)=O)CC2NC(=O)CNC(=O)c2cccc(C(F)(F)F)c2)cc1 (racemic)
13 nM	7.9 nM	75%	–	–	–	CCCCN1CCC(NCc2ccc(SC)cc2)C(NC(=O)CNC(=O)c2cc(C(F)(F)F)ccc2N)C1 (racemic)
13 nM	4.3 nM	77%	–	–	–	CCCCN1CCC(NC(=O)c2ccc(SC)cc2)C(NC(=O)CNC(=O)c2cc(C(F)(F)F)ccc2N)C1 (racemic)
–	–	–	–	–	0%	CSc1ccc(C(=O)NC2CCN(C(=O)OC(C)(C)C)CC2NC(=O)CNC(=O)c2cc(C(F)(F)F)ccc2NC(=O)OC(C)(C)C)cc1 (racemic)
–	–	–	–	–	0%	CSc1ccc(CNC2CCN(C(=O)OC(C)(C)C)CC2NC(=O)CNC(=O)c2cccc(C(F)(F)F)c2)cc1 (racemic)
